According to US5658906A, “Cysteine protease and serine protease inhibitors” (Cephalon, Inc., priority 1996, dated 1997):

Legend:
Cathepsin B = target: T1, Cathepsin B (Homo sapiens, UniProt P07858); test: Inhibition and rate of inactivation of cathepsin B (Cbz-Phe-Arg-AMC hydrolysis); assay type: biochemical; details: pH 6.0, 0.1 mM substrate, read-out: k2 (second order rate constant of inactivation), C = Cathepsin B
T1 construct: purchased Calbiochem 219364
Protocol: Additionally, the order of reagents added to the plate was altered because both enzymes are constitutively active. Following inhibitor addition to the plates appropriate 2× concentrated stock dilutions of the enzyme preparations were made in assay buffer and 100 ul added to each well. The assay was initiated by addition of 100 ul of 2× concentrated stock dilution of substrate in assay buffer. Substrate hydrolysis was monitored using a Fluroskan II (ex=390 nm; em=460 nm).
Inhibition of enzyme activity was calculated as the percent decrease in the rate of substrate hydrolysis in the presence of inhibitor (.upsilon.i) relative to the rate in its absence (.upsilon.o). Comparison between .upsilon.o and .upsilon.i was made within the linear range for substrate hydrolysis. For screening, compounds were tested at 10 μM. Compounds having ≥50% inhibition at 10 μM were considered active. Apparent second order rate constants were determined from analysis of reaction progress curves under pseudo-first order conditions. Each determination represents the mean of three or more independent single cuvette analyses continually monitored via a Perkin-Elmer LS50B spectrofluorimeter. The rate of inhibition of hydrolysis was obtained by fitting the curve to the exponential equation (1):
y=Ae^-k.spsb.obs·t +B (1)
where y (Pt) is the product formed at time t. A and B are constants. A, the amplitude of the reaction, is given by [Po -P.varies. ] and B (=P.varies.) is the maximal product formed when the reaction is […]. This was corrected for the presence of equation (2): […]

α-chymotrypsin = target: T2, α-chymotrypsin (Bos taurus, UniProt P00766); test: Inhibition of the serine protease α-chymotrypsin (Succ-Ala-Ala-Pro-Phe-AMC hydrolysis); assay type: biochemical; details: pH 7.5, 0.03 mM substrate
T2 construct: purchased Sigma Chem. Co. C-3142
Protocol: Additionally,because α-chymotrypsin is not a calcium sensitive enzyme and is constituitively active, following addition of inhibitor stocks to the 96 well plates, 100 ul of a 2 fold concentrated stock of enzyme in dilution buffer was first added and the reaction started by addition of 100 ul of a 2 fold concentrated stock of substrate in assay buffer. Substrate hydrolysis was monitored every 5 minutes up to 30 minutes using a Fluoroskan II ([…]).

Row | kinact/KI (Cathepsin B) | inhibition at 10 µM (α-chymotrypsin) | Structure (SMILES)
1 | 107000 M⁻¹ s⁻¹ | 81% | CC(C)C[C@H](NC(=O)OCc1ccccc1)C(=O)N[C@@H](Cc1ccccc1)C(=O)COn1nnc2cccnc21 [Example 6, 3-[N-[N-Benzyloxycarbonyl-L-leucyl]-3S-4-phenyl-3-amino-2-oxobutyloxy]-3H-triazolo[4,5-b]pyridine]
2 | 443000 M⁻¹ s⁻¹ | 34% | CC[C@H](NC(=O)[C@H](CC(C)C)NC(=O)OCc1ccccc1)C(=O)COn1nnc2ccccc21 [Example 5, 1-[N-[N-Benzyloxycarbonyl-L-leucyl]-3S-3-amino-2-oxopentyloxy] benzotriazole]
3 | 7000 M⁻¹ s⁻¹ | 82% | CC(C)C[C@H](NC(=O)OCc1ccccc1)C(=O)N[C@@H](Cc1ccccc1)C(=O)COn1nnc2ccccc2c1=O [Example 28, 1-[N-[N-Benzyloxycarbonyl-L-leucyl]-3S-4-phenyl-3-amino-2-oxobutyloxy]-3-benzotriazin-4-one]
4 | 117000 M⁻¹ s⁻¹ | 86% | CC(C)C[C@H](NC(=O)OCc1ccccc1)C(=O)N[C@@H](Cc1ccccc1)C(=O)COn1nnc2ccccc21 [Example 3, 1-[N-[N-Benzyloxycarbonyl-L-leucyl]-3S-4-phenyl-3-amino-2-oxobutyloxy]benzotriazole]
